Several values for one entry are separate records, joined by “and”; a condition that tells them apart may be missing. Equal values may be shown once.

Test [1] deals with Staphylococcus epidermidis strains. The experiment in a line: % inhibition of bacterial growth by the MIX and its components. It is filed as cell-based. The settings on record: MIX = both. As for the experimental part:
Antibacterial activity of the peptides used in this work was evaluated as described previously. […] The fractional inhibitory concentration (FIC) index for combinations of two peptides was calculated according to the equation: FIC index = […] = A/MICA + B/MICB , where A and B are the MICs of drug A and drug B in the combination, MICA and MICB are the MICs of drug A and drug B alone, and FICA and FICB are the FICs of drug A and drug B. The FIC indices were interpreted as follows: ≤0.5, synergy; 0.51-4.0, no interaction; > 4.0, antagonism. The growth inhibition percentages of Staphylococcus epidermidis and probiotic strains were assessed under the same conditions.

In a further test the test system is J774 cells. The experiment in a line: Nitrite (NO2-) formation in J774 cells, Griess reaction. It is filed as cell-based, mouse. Background: Griess reagent forms a coloured azo dye with nitrite.
Test [2] concerns Staphylococcus epidermidis strains. The experiment in a line: Antibacterial activity of AMPs (MIC100) and synergism (FIC index). Conditions: against Staphylococcus epidermidis strains, single agent. In kind it is cell-based. As for the experimental part: Antibacterial activity of the peptides used in this work was evaluated as described previously. […] The fractional inhibitory concentration (FIC) index for combinations of two peptides was calculated according to the equation: FIC index = […] = A/MICA + B/MICB , where A and B are the MICs of drug A and drug B in the combination, MICA and MICB are the MICs of drug A and drug B alone, and FICA and FICB are the FICs of drug A and drug B. The FIC indices were interpreted as follows: ≤0.5, synergy; 0.51-4.0, no interaction; > 4.0, antagonism.

A word on the MIC: it is the least concentration at which growth counts as inhibited. For the substance “KKYLLPI VGNLLKSLL-NH2 [TB-KK, analogue of the temporin B]”, the “% inhibition of bacterial growth” value was 23 ± 0.5% in test [1] (strain 2/2, RJI-C 9 μg/ml, TB-KK 6 μg/ml); 19 ± 2% in test [1] (strain 3/28, RJI-C 9 μg/ml (7.3 μM), TB-KK 6 μg/ml (2.6 μM)); 10 ± 1% in test [1] (strain 5/6, RJI-C 9 μg/ml, TB-KK 6 μg/ml); 21 ± 2% in test [1] (strain 5/8, RJI-C 9 μg/ml, TB-KK 6 μg/ml); 21 ± 1% in test [1] (strain 5/25, RJI-C 9 μg/ml, TB-KK 6 μg/ml); 26 ± 2% in test [1] (strain 9/1, RJI-C 9 μg/ml, TB-KK 6 μg/ml). Besides, the “% inhibition of bacterial growth” value in test [1] (strain 10/28, RJI-C 9 μg/ml, TB-KK 6 μg/ml) amounted to 4 ± 1%; in test [1] (strain 12/14, RJI-C 9 μg/ml, TB-KK 6 μg/ml), 20 ± 3%; in test [1] (strain 12/26, RJI-C 9 μg/ml, TB-KK 6 μg/ml), 14 ± 2%. The “NO2- production of J774 cells” value in the test on J774 cells is 0.82 ± 0.05 μmol/10^6 cells and 1.25 ± 0.2 μmol/10^6 cells and 1.34 ± 0.2 μmol/10^6 cells. Besides, in the test with J774 cells, the “NO2- synthesis in LPS-stimulated J774 cells, in words” value was “reduced NO2^- synthesis”. In test [2] (10^5 CFU/well), the MIC100 was found to be 7 µg/mL. In addition, in test [2] (value in brackets), the MIC is given as 3 µM.

(Values after article PMC3526545, “New perspectives for natural antimicrobial peptides: application as antinflammatory drugs in a murine model” (BMC Immunology, 2012).)
